Each structure is given as a SMILES string.

Chain of His-tagged KRAS G12D protein (P01116 1-188 isoform P01116-2 G12D): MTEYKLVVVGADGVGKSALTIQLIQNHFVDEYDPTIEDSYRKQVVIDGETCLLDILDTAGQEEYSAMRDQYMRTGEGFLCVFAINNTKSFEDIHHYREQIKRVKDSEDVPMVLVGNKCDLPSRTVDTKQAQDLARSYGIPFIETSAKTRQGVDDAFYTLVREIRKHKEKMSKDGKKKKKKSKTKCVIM

The first experiment addresses His-tagged KRAS G12D protein (Homo sapiens, UniProt P01116, G12D). Put plainly: biochemical.
Details: not given
As usually defined, the IC50 is the concentration that gives 50% inhibition. Compound `CCc1c(F)ccc2cc(O)cc(-c3ncc4c(N5CCC[C@H](C(N)=O)C5)nc(OC[C@@]56CCCN5C[C@H](F)C6)nc4c3F)c12` [Example 90, (S)-1-(7-(8-Ethyl-7-fluoro-3-hydroxynaphthalen-1-yl)-8-fluoro-2-(((2R,7aS)-2-fluorotetrahydro-1H-pyrrolizin-7a(5H)-yl)methoxy)pyrido[4,3-d]pyrimidin-4-yl)piperidine-3-carboxamide] showed an IC50 of 16 nM.

On to `CCc1c(F)ccc2cc(O)cc(-c3ncc4c(N5CCCC(c6c[nH]cn6)C5)nc(OC[C@@]56CCCN5C[C@H](F)C6)nc4c3F)c12` (stereo partly drawn) [Example 106, 4-(4-(3-(1H-Imidazol-4-yl)piperidin-1-yl)-8-fluoro-2-(((2R,7aS)-2-fluorotetrahydro-1H-pyrrolizin-7a(5H)-yl)methoxy)pyrido[4,3-d]pyrimidin-7-yl)-5-ethyl-6-fluoronaphthalen-2-ol], for which inhibition was half-maximal at 10 nM (IC50).

In turn, `CCc1c(F)ccc2cc(O)cc(-c3ncc4c(N5CCCC(c6ccn[nH]6)C5)nc(OC[C@@]56CCCN5C[C@H](F)C6)nc4c3F)c12` (stereo partly drawn) [Example 107, 4-(4-(3-(1H-Pyrazol-5-yl)piperidin-1-yl)-8-fluoro-2-(((2R,7aS)-2-fluorotetrahydro-1H-pyrrolizin-7a(5H)-yl)methoxy)pyrido[4,3-d]pyrimidin-7-yl)-5-ethyl-6-fluoronaphthalen-2-ol] showed a half-maximal inhibitory concentration (IC50) of 8 nM.

As to `CCc1c(F)ccc2cc(O)cc(-c3ncc4c(N5CCCC(c6cnco6)C5)nc(OC[C@@]56CCCN5C[C@H](F)C6)nc4c3F)c12` (stereo partly drawn) [Example 108, 5-Ethyl-6-fluoro-4-(8-fluoro-2-(((2R,7aS)-2-fluorotetrahydro-1H-pyrrolizin-7a(5H)-yl)methoxy)-4-(3-(oxazol-5-yl)piperidin-1-yl)pyrido[4,3-d]pyrimidin-7-yl)naphthalen-2-ol], half-maximal inhibition (IC50) was put at 11 nM.

On to `CCc1c(F)ccc2cc(O)cc(-c3ncc4c(N5CC=CC(O)C5)nc(OC[C@@]56CCCN5C[C@H](F)C6)nc4c3F)c12` (stereo partly drawn) [Example 109, 1-(7-(8-Ethyl-7-fluoro-3-hydroxynaphthalen-1-yl)-8-fluoro-2-(((2R,7aS)-2-fluorotetrahydro-1H-pyrrolizin-7a(5H)-yl)methoxy)pyrido[4,3-d]pyrimidin-4-yl)-1,2,3,6-tetrahydropyridin-3-ol], for which the IC50 amounted to 12 nM.

In turn, `CCc1c(F)ccc2cc(O)cc(-c3ncc4c(N5CCCC(NS(C)(=O)=O)C5)nc(OC[C@@]56CCCN5C[C@H](F)C6)nc4c3F)c12` (stereo partly drawn) [Example 110, N-(1-(7-(8-Ethyl-7-fluoro-3-hydroxynaphthalen-1-yl)-8-fluoro-2-(((2R,7aS)-2-fluorotetrahydro-1H-pyrrolizin-7a(5H)-yl)methoxy)pyrido[4,3-d]pyrimidin-4-yl)piperidin-3-yl)methanesulfonamide] had an IC50 of 6 nM.

Turning to `CCc1c(F)ccc2cc(O)cc(-c3ncc4c(N5C[C@H]6COC[C@H]6C5)nc(OC[C@@]56CCCN5C[C@H](F)C6)nc4c3F)c12` [Example 122, 5-Ethyl-6-fluoro-4-(8-fluoro-2-(((2R,7aS)-2-fluorotetrahydro-1H-pyrrolizin-7a(5H)-yl)methoxy)-4-((3aR,6aS)-tetrahydro-1H-furo[3,4-c]pyrrol-5(3H)-yl)pyrido[4,3-d]pyrimidin-7-yl)naphthalen-2-ol], 33 nM corresponded to half-maximal inhibition (IC50).

With `CCc1c(F)ccc2cc(O)cc(-c3ncc4c(N5CCCC(C(C)(C)O)C5)nc(OC[C@@]56CCCN5C[C@H](F)C6)nc4c3F)c12` (stereo partly drawn) [Example 124, 5-Ethyl-6-fluoro-4-(8-fluoro-2-(((2R,7aS)-2-fluorotetrahydro-1H-pyrrolizin-7a(5H)-yl)methoxy)-4-(3-(2-hydroxypropan-2-yl)piperidin-1-yl)pyrido[4,3-d]pyrimidin-7-yl)naphthalen-2-ol], the IC50 came out at 70 nM.

On to `CCc1c(F)ccc2cc(O)cc(-c3ncc4c(N5CCCC[C@H](O)C5)nc(OC[C@@]56CCCN5C[C@H](F)C6)nc4c3F)c12` [Example 130, (S)-1-(7-(8-Ethyl-7-fluoro-3-hydroxynaphthalen-1-yl)-8-fluoro-2-(((2R,7aS)-2-fluorotetrahydro-1H-pyrrolizin-7a(5H)-yl)methoxy)pyrido[4,3-d]pyrimidin-4-yl)azepan-3-ol], for which the IC50 was found to be 4 nM.

Turning to `CCc1c(F)ccc2cc(O)cc(-c3ncc4c(N5CCCC[C@@H](N)C5)nc(OC[C@@]56CCCN5C[C@H](F)C6)nc4c3F)c12` [Example 131, 4-(4-((R)-3-Aminoazepan-1-yl)-8-fluoro-2-(((2R,7aS)-2-fluorotetrahydro-1H-pyrrolizin-7a(5H)-yl)methoxy)pyrido[4,3-d]pyrimidin-7-yl)-5-ethyl-6-fluoronaphthalen-2-ol], it took 4 nM to reach half-maximal inhibition (IC50).

In turn, `CCc1c(F)ccc2cc(O)cc(-c3ncc4c(N5CCCC(C)(O)CC5)nc(OC[C@@]56CCCN5C[C@H](F)C6)nc4c3F)c12` (stereo partly drawn) [Example 142, 1-(7-(8-Ethyl-7-fluoro-3-hydroxynaphthalen-1-yl)-8-fluoro-2-(((2R,7aS)-2-fluorotetrahydro-1H-pyrrolizin-7a(5H)-yl)methoxy)pyrido[4,3-d]pyrimidin-4-yl)-4-methylazepan-4-ol] displayed an IC50 of 14 nM.

`C=C1CCCN(c2nc(OC[C@@]34CCCN3C[C@H](F)C4)nc3c(F)c(-c4cc(O)cc5ccc(F)c(CC)c45)ncc23)CC1` [Example 144, 5-Ethyl-6-fluoro-4-(8-fluoro-2-(((2R,7aS)-2-fluorotetrahydro-1H-pyrrolizin-7a(5H)-yl)methoxy)-4-(4-methyleneazepan-1-yl)pyrido[4,3-d]pyrimidin-7-yl)naphthalen-2-ol] returned an IC50 of 6 nM.

`CCc1c(F)ccc2cc(O)cc(-c3ncc4c(N5CCCC(C)(OC)C5)nc(OC[C@@]56CCCN5C[C@H](F)C6)nc4c3F)c12` (stereo partly drawn) [Example 148, 5-Ethyl-6-fluoro-4-(8-fluoro-2-(((2R,7aS)-2-fluorotetrahydro-1H-pyrrolizin-7a(5H)-yl)methoxy)-4-(3-methoxy-3-methylpiperidin-1-yl)pyrido[4,3-d]pyrimidin-7-yl)naphthalen-2-ol] showed an IC50 of 38 nM.

`CCc1c(F)ccc2cc(O)cc(-c3ncc4c(N5CCCC(C#N)C5)nc(OC[C@@]56CCCN5C[C@H](F)C6)nc4c3F)c12` (stereo partly drawn) [Example 151, 1-(7-(8-Ethyl-7-fluoro-3-hydroxy-naphthalen-1-yl)-8-fluoro-2-(((2R,7aS)-2-fluorotetrahydro-1H-pyrrolizin-7a(5H)-yl)methoxy)pyrido[4,3-d]pyrimidin-4-yl)piperidine-3-carbonitrile] registered an IC50 of 11 nM.

The compound `CCc1c(F)ccc2cc(O)cc(-c3ncc4c(N5C[C@H](O)C[C@H](C(F)(F)F)C5)nc(OC[C@@]56CCCN5C[C@H](F)C6)nc4c3F)c12` [Example 154, (3R,5S)-1-(7-(8-Ethyl-7-fluoro-3-hydroxy-naphthalen-1-yl)-8-fluoro-2-(((2R,7aS)-2-fluorotetrahydro-1H-pyrrolizin-7a(5H)-yl)methoxy)pyrido[4,3-d]pyrimidin-4-yl)-5-(trifluoromethyl) piperidin-3-ol] gave a half-maximal inhibitory concentration (IC50) of 16 nM.

For `CCc1c(F)ccc2cc(O)cc(-c3ncc4c(N5CCCC(S(=O)(=O)C(F)F)C5)nc(OC[C@@]56CCCN5C[C@H](F)C6)nc4c3F)c12` (stereo partly drawn) [Example 161, 4-(4-(3-((Difluoromethyl)sulfonyl)piperidin-1-yl)-8-fluoro-2-(((2R,7aS)-2-fluorotetrahydro-1H-pyrrolizin-7a(5H)-yl)methoxy)pyrido[4,3-d]pyrimidin-7-yl)-5-ethyl-6-fluoronaphthalen-2-ol], the IC50 is 76 nM.

The test system of a further experiment is Phosphorylation of ERK1/2 in AsPC-1 cells. Put plainly: Phospho-ERK1/2 MSD Assay. The conditions noted are these: Homo sapiens, ASPC1, 2 h, read-out: 2 h p-ERK (AsPC-1 cells), IC50, AsPC-1 cells, 2 h compound treatment. The class given is cell-based. The method, then:
Sixteen hours prior to compound treatment, AsPC-1 cells were seeded in 96-well cell culture plates at a density of 25,000 cells/well and incubated at 37° C., 5% CO2. A compound dose-response titration was diluted in growth media, added to appropriate wells of a cell culture plate, and then incubated at 37° C., 5% CO2 for 2 hours.
Regarding `CCc1c(F)ccc2cc(O)cc(-c3ncc4c(N5CCC[C@@](C)(N)C5)nc(OCC56CCCN5CC(F)C6)nc4c3F)c12` (stereo in doubt) [Example 46, 4-(4-((R)-3-Amino-3-methylpiperidin-1-yl)-8-fluoro-2-(((2R,7aS)-2-fluorotetrahydro-1H-pyrrolizin-7a(5H)-yl)methoxy)pyrido[4,3-d]pyrimidin-7-yl)-5-ethyl-6-fluoronaphthalen-2-ol], the IC50 turned out to be 213 nM.

For `CCc1c(F)ccc2cc(O)cc(-c3ncc4c(N5CCCC(OC)C5)nc(OC[C@@]56CCCN5C[C@H](F)C6)nc4c3F)c12` (stereo partly drawn) [Example 15, 5-Ethyl-6-fluoro-4-(8-fluoro-2-(((2R,7aS)-2-fluorotetrahydro-1H-pyrrolizin-7a(5H)-yl)methoxy)-4-(3-methoxypiperidin-1-yl)pyrido[4,3-d]pyrimidin-7-yl)naphthalen-2-ol], the concentration for half-maximal inhibition (IC50) was 1480 nM.

Turning to `CCc1c(F)ccc2cc(O)cc(-c3ncc4c(N5CCC(O)C5)nc(OC[C@@]56CCCN5C[C@H](F)C6)nc4c3F)c12` (stereo partly drawn) [Example 16, 1-(7-(8-Ethyl-7-fluoro-3-hydroxynaphthalen-1-yl)-8-fluoro-2-(((2R,7aS)-2-fluorotetrahydro-1H-pyrrolizin-7a(5H)-yl)methoxy)pyrido[4,3-d]pyrimidin-4-yl)pyrrolidin-3-ol], the IC50 stood at 2860 nM.

With `CCc1c(F)ccc2cc(O)cc(-c3ncc4c(N5C[C@H](O)CC[C@H]5C)nc(OC[C@@]56CCCN5C[C@H](F)C6)nc4c3F)c12` [Example 36, (3R,6R)-1-(7-(8-Ethyl-7-fluoro-3-hydroxynaphthalen-1-yl)-8-fluoro-2-(((2R,7aS)-2-fluorotetrahydro-1H-pyrrolizin-7a(5H)-yl)methoxy)pyrido[4,3-d]pyrimidin-4-yl)-6-methyl-piperidin-3-ol], the IC50 was found to be 344 nM.

Staying with this experiment, now noted: read-out: 2 h p-ERK (AsPC-1 cells), IC50; AsPC-1 cells, 2 h compound treatment.
`CCc1c(F)ccc2cc(O)cc(-c3ncc4c(N5CCCC(O)(CF)C5)nc(OC[C@@]56CCCN5C[C@H](F)C6)nc4c3F)c12` (single isomer, unassigned) [Example 171]: the concentration for half-maximal inhibition (IC50) came out at 2 nM.

Regarding `CCc1c(F)ccc2cc(O)cc(-c3ncc4c(N5CCCC(O)(CF)C5)nc(OC[C@@]56CCCN5C[C@H](F)C6)nc4c3F)c12` (single isomer, unassigned) [Example 172], the IC50 was determined as 86 nM.

Source of the values: patent publication US20250034167A1, “HETEROCYCLIC COMPOUNDS AND METHODS OF USE” (AMGEN INC., priority 2021, published 2025).
